Measurements as given in paper PMC6106730, “The hemicellulose-degrading enzyme system of the thermophilic bacterium Clostridium stercorarium: comparative characterisation and addition of new hemicellulolytic glycoside hydrolases” (Biotechnology for Biofuels, 2018).

How the values were obtained:
Xyn10D = molecular target: T1, Xyn10D (Thermoclostridium stercorarium, UniProt L7VM99); assay: HPAEC-PAD of hydrolysis products; format: biochemical; settings: 20 mg/L oligosaccharide, 2 mg/L enzyme, overnight, 60 °C, pH 6.5
T1 construct: gene Cst_c07550; no signal peptide predicted; C-terminal His6 tag, pET-24c(+), E. coli BL21 Star; IMAC and heat step

Xyn105F = molecular target: T2, Xyn105F (Thermoclostridium stercorarium, UniProt L7VMZ8); assay: HPAEC-PAD of hydrolysis products; format: biochemical; settings: 20 mg/L oligosaccharide, 2 mg/L enzyme, overnight, 60 °C, pH 6.5
T2 construct: gene Cst_c10410; no signal peptide predicted; C-terminal His6 tag, pET-24c(+), E. coli BL21 Star; IMAC and heat step
T2 sequence (L7VMZ8 entry or part of it): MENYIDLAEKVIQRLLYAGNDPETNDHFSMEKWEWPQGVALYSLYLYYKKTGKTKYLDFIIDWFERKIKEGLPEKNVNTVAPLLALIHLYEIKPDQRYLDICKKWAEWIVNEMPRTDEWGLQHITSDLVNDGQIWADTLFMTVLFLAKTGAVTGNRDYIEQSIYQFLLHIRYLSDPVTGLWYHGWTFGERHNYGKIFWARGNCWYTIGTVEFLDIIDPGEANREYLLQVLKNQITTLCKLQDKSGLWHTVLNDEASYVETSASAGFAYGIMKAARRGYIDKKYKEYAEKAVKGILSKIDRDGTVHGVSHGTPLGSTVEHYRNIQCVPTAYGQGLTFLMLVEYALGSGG

T1 sequence (L7VM99 entry or part of it): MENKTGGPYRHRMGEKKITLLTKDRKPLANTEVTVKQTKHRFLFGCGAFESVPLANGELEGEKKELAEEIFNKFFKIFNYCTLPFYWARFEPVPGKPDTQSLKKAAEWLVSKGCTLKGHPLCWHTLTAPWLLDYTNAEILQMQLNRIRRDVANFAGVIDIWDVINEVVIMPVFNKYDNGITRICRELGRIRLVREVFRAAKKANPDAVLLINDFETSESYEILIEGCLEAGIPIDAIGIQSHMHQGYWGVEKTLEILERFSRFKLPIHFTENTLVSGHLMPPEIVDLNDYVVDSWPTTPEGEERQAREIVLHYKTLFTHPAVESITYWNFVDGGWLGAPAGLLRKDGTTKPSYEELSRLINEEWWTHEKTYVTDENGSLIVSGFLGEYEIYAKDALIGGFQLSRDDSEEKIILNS

## OC1OC[C@@H](O[C@@H]2OC[C@@H](O[C@@H]3OC[C@@H](O[C@@H]4OC[C@@H](O[C@@H]5OC[C@@H](O)[C@H](O)[C@H]5O)[C@H](O)[C@H]4O)[C@H](O)[C@H]3O)[C@H](O)[C@H]2O)[C@H](O)[C@H]1O (some centres unmarked) [X5, xylopentaose]
Xyn10D
  HPAEC-PAD of hydrolysis products: All five xylanases degraded xylopentaose first to xylotriose and xylobiose
Xyn105F
  HPAEC-PAD of hydrolysis products: Xyn105F was also active on xylopentaose, releasing xylose and xylobiose
